Laboratory results from patent US20090258917A1 (priority 2005, published 2009).

Each compound was assayed against T1, mPGES-1 (Homo sapiens, UniProt O14684) (assay: mPGES-1 assay: conversion of PGH2 to PGE2, PGE2 analysed by HPLC). Conditions: biological test described above; 10 μM or below; read-out: concentration giving 50% inhibition of mPGES-1.
T1 construct: made in house; host or cells: E. coli
T1 sequence (O14684 1-152): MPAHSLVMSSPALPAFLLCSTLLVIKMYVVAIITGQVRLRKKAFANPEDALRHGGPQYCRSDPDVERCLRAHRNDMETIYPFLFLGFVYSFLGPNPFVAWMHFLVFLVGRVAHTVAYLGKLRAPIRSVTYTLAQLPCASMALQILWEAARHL
Assay type: biochemical
Protocol: In the assay mPGES-1 catalyses the reaction where the substrate PGH2 is converted to PGE2. mPGES-1 is expressed in E. coli and the membrane fraction is dissolved in 20 mM NaPi-buffer pH 8.0 and stored at −80° C. […] The stop solution consists of H2O/MeCN (7/3), containing FeCl2 (25 mM) and HCl (0.15 M). The assay is performed at room temperature in 96-well plates.
The following is added chronologically to each well: • 1. 100 μL mPGES-1 in KPi-buffer with glutathione. Total protein concentration: 0.02 mg/mL. • 2. 1 μL inhibitor in DMSO. Incubation of the plate at room temperature for 25 minutes. • 3. 4 μL of a 0.25 mM PGH2 solution. Incubation of the plate at room temperature for 60 seconds. • 4. 100 μL stop solution. • 180 μL per sample is analyzed with HPLC.

Compound	IC50 [µM]
CC(C)c1ccc2oc(-c3cccc(NC(=O)c4cc(Cl)ccc4Cl)c3)nc2c1	≤ 10
Cc1cc(C)c2oc(-c3ccc(C)c(NC(=O)c4ccc(Cl)cc4Cl)c3)nc2c1 [2,4-dichloro-N-[2-methyl-5-(5,7-dimethylbenzoxazol-2-yl)phenyl]benzamide]	≤ 10
O=C(Nc1ccc(Cl)c(-c2nc3cc(Cl)ccc3o2)c1)c1ccc([N+](=O)[O-])cc1Cl [2-chloro-N-[4-chloro-3-(5-chlorobenzoxazol-2-yl)phenyl]-4-nitrobenzamide]	≤ 10
CC(C)c1ccc2oc(-c3cc(NC(=O)c4ccccc4[N+](=O)[O-])ccc3Cl)nc2c1 [N-[4-chloro-3-(5-isopropylbenzoxazol-2-yl)phenyl]-2-nitrobenzamide]	≤ 10
COc1ccc(C(=O)Nc2ccc(Cl)c(-c3nc4cc(C(C)C)ccc4o3)c2)cc1[N+](=O)[O-] [N-[4-chloro-3-(5-isopropylbenzoxazol-2-yl)phenyl]-4-methoxy-3-nitrobenzamide]	≤ 10
CC(C)c1ccc2oc(-c3cc(NC(=O)c4cccnc4)ccc3Cl)nc2c1 [N-[4-chloro-3-(5-isopropylbenzoxazol-2-yl)phenyl]nicotinamide]	≤ 10

Second part, the compound after the results:

IC50 [µM]	Compound
≤ 10	Cc1cc2nc(-c3cccc(NC(=O)c4cc(Cl)ccc4Cl)c3)oc2cc1C [2,5-dichloro-N-[3-(5,6-dimethylbemoxazol-2-yl)phenyl]benzamide]
≤ 10	O=C(Nc1cccc(-c2nc3cc(Cl)cc(Cl)c3o2)c1)c1ccccc1Br [2-bromo-N-[3-(5,7-dichlorobenzoxazol-2-yl)phenyl]benzamide]
≤ 10	Cc1ccc2oc(-c3cccc(NC(=O)c4ccccc4Cl)c3)nc2c1 [2-chloro-N-[3-(5-methylbenzoxazol-2-yl)phenyl]benzamide]
≤ 10	O=C(Nc1ccc(Cl)c(-c2nc3cc(Cl)ccc3o2)c1)c1ccccc1Cl [2-chloro-N-[4-chloro-3-(5-chlorobenzoxazol-2-yl)phenyl]benzamide]
≤ 10	CC(C)c1ccc2oc(-c3cc(NC(=O)c4ccccc4Cl)ccc3Cl)nc2c1 [2-chloro-N-[4-chloro-3-(5-isopropylbenzoxazol-2yl)phenyl]benzamide]
≤ 10	O=C(Nc1ccc(Cl)c(-c2nc3cc(Cl)ccc3o2)c1)c1ccccc1[N+](=O)[O-] [N-[4-chloro-3-(5-chlorobenzoxazol-2-yl)phenyl]-2-nitrobenzamide]

Same assay, conditions: mPGES-1 expressed in E. coli; 25 min preincubation with inhibitor, 60 s with PGH2, room temperature; read-out: IC50

IC50 [µM]	Compound
1.9	Cc1ccc2oc(-c3cccc(NC(=O)c4ccccc4[N+](=O)[O-])c3)nc2c1 [Example 3, N-[3-(5-Methylbenzoxazol-2-yl)phenyl]-2-nitrobenzamide]
2.3	Cc1ccc2oc(-c3cc(NC(=O)c4ccccc4OC(F)(F)F)ccc3Cl)nc2c1 [Example 20, N-[4-Chloro-3-(5-methylbenzoxazol-2-yl)phenyl]-2-trifluoromethoxybenzamide]
2.6	Cc1ccc2oc(-c3cc(NC(=O)c4ccccc4F)ccc3Cl)nc2c1 [Example 23, N-[4-Chloro-3-(5-methylbenzoxazol-2-yl)phenyl]-2-fluorobenzamide]
